Experimental data: patent US20070142348A1, “Microbicidal, prophylactic and therapeutic effect of ctc-96 on papilloma viruses” (REDOX PHARMACEUTICAL CORPORATION, AUDUBON […] AND […], priority 2003, published 2007)

What was measured:
HPV-11 [1] = experiment: Effect of CTC-96 on the infectivity of HPV-11 (virus incubated with CTC-96 prior to infection of foreskin fragments), human xenograft SCID mouse model; assay type: in vivo, SCID mice; conditions: for Immunocytochemistry: grafts Negative for HPV (number): foreign body/fibrous counted as negative; for Histology: grafts Negative for HPV (number): foreign body reaction/fibrous tissue counted as negative; for Composite Geometric Mean Diameters (cGMD) of the Grafts, Median: 12 weeks; for Composite Geometric Mean Diameters (cGMD) of the Grafts, Mean ± SD: 12 weeks after grafting
Method: The effect of CTC-96™ on the infectivity of HPV-11 was evaluated in the human xenograft SCID mouse model. HPV type 11 is, with HPV-6, one of the two viruses responsible for the majority of anogenital warts in humans.
CTC-96™ in saline was incubated with HPV-11 prior to infection of human neonatal foreskin fragments. The fragments were then grafted onto SCID mice. The animals were monitored weekly. They were weighed at the time of grafting, and every other week during the 12 weeks of the experiment. There was no effect of HPV-11 treatment by CTC-96™ on the weight of the mice. The animals were sacrificed by cervical dislocation 12 weeks after graft implantation. Length, width, and height of the graft were measured and recorded. A composite geometric mean diameter (cGMD) of the grafts was calculated for each mouse. The grafts were then removed and analyzed by histology, immunocytochemistry and RT-PCR. Graft evaluation by immunocytochemistry utilized anti-common Papillomavirus antigen^4. Explanted grafts were homogenized and total RNA was extracted. HPV-11 viral cDNA was generated by nested RT-PCR.
Presence of HPV was defined by the presence of two out of three of the following features: acanthosis (an increase in the thickness of the stratum spinosum of the epidermis) koilocytosis (perinuclear vacuolation), or parakeratosis (persistence of the nuclei in the cells of the stratum corneum of the epidermis). As the CTC-96™ concentration increases the percentages of grafts containing HPV decreases, with none positive at the two higher concentrations. […] Two explanations are possible for the high number of foreign body reactions present in the grafts infected with the HPV-11 treated with the two highest concentrations of CTC-96™. The first is that CTC-96™ completely inactivated HPV-11. […] The alternate explanation is that CTC-96™ was toxic to the graft itself. This is unlikely since CTC-96™ has been used in vitro and in vivo in intravaginal preparations without associated toxicities at the concentrations used, and at the lowest concentration of CTC-96™ (0.05%), the number of grafts with a foreign body reaction was not different than that in the control group, thus toxicity would be unlikely to account for the lower number of HPV positive grafts (P=0.0 15; by Fisher exact test). Since CTC-96™ has a clear virucidal action at the lowest concentration (see Table 4), it is reasonable to assume that this virucidal action is present at higher concentrations, independent of the presence of a cytotoxic effect.
Table 4 presents the results and analysis of the HPV RT-PCR, which was performed by extracting total RNA from homogenized, explanted grafts and generating HPV-11 viral cDNA by nested RT-PCR. Using this assay, there is a strong and clear dose-response effect. Only with the highest dose of CTC-96™ is there complete obliteration of viral transcriptional activity.

HPV-11 [2] = experiment: Prophylactic (topical microbicide) activity: human grafts exposed to CTC-96 for 1 hour, washed, then exposed to HPV-11; xenograft in the SCID mouse; assay type: in vivo
Method: Given the virucidal activity of CTC-96™, a series of experiments was performed to evaluate the prophylactic activity of the compound under conditions resembling that of the use of a topical microbicide. When using a topical microbicide the target organ is first exposed to the microbicide before exposure to the virus. Various concentrations of CTC-96™ were evaluated in a model of HPV-11-infected human xenograft in the SCID mouse. The human grafts were exposed to CTC-96™ for 1 hour prior to exposure to HPV-11 and engraftment. Because CTC-96™ is virucidal, it was washed off the foreskin fragments before exposure to the virus. The HPV-11-infected grafts were allowed to grow for 12 weeks. After 12 weeks, the animals were sacrificed and the grafts recovered, measured and processed. Graft size, expressed as the composite geometric mean diameter of the two grafts borne by the animal, was the primary endpoint. Histology of the grafts was examined for the presence of HPV. Grafts were also processed for detection of HPV-11 mRNAs transcripts by reverse transcriptase-polymerase chain reaction (RT-PCR).
Grafts that are not infected by HPV proliferate poorly and tend to be eliminated by the mouse's host defenses as a foreign body. The residual fibrous tissue is a scar. In order to analyze the results properly, grafts that were truly negative (graft showing a healthy human epithelium) as well as those showing a foreign body reaction or fibrous tissue were counted as negative for HPV.
Table 7 summarizes the immunocytochemistry results for the presence of HPV capsid antigen in the grafts. As the concentration of CTC-96™ increases, the number of grafts displaying either fibrous tissue or a foreign body reaction also increases. […] Again, a strong microbicidal effect of CTC-96™ is observed.

[3] = HPV-11 treated with CTC-96 0.05%
[4] = HPV-11 treated with CTC-96 0.2%
[5] = concentration not printed in the table row (0.2% group)

SMILES: CC(/C=C(/C)[O-])=NCCN=C(C)/C=C(/C)[O-].Cc1ncc[nH]1.Cc1ncc[nH]1.[Br-].[Co+3] [CTC-96]
- Effect on the weight of the mice (HPV-11 [1]; 12 weeks of the experiment): no effect
- Histology: grafts Positive for HPV (number) (HPV-11 [1]; CTC-96 0.05%): 4
- Histology: grafts Positive for HPV (percent) (HPV-11 [1]; CTC-96 0.05%): (26.7%)
- Immunocytochemistry: grafts Positive for HPV (number) (HPV-11 [1]; CTC-96 0.05%): 2
- Immunocytochemistry: grafts Positive for HPV (percent) (HPV-11 [1]; CTC-96 0.05%): (12.5%)
- RT-PCR: grafts HPV-11 Negative (number) (HPV-11 [1]; CTC-96 0.05%): 7
- RT-PCR: grafts HPV-11 Positive (number) (HPV-11 [1]; CTC-96 0.05%): 9
- RT-PCR: grafts HPV-11 Positive (percent) (HPV-11 [1]; CTC-96 0.05%): (56.2%)
- Immunocytochemistry: grafts Negative for HPV (number) (HPV-11 [1]; CTC-96 0.05%, anti-common Papillomavirus antigen): 14
- Histology: grafts Negative for HPV (number) (HPV-11 [1]; CTC-96 0.05%): 11
- Histology: grafts Positive for HPV (number) (HPV-11 [1]; CTC-96 0.2%): 0
- Histology: grafts Positive for HPV (percent) (HPV-11 [1]; CTC-96 0.2%): (0%)
- Immunocytochemistry: grafts Positive for HPV (number) (HPV-11 [1]; CTC-96 0.2%): 0
- Immunocytochemistry: grafts Positive for HPV (percent) (HPV-11 [1]; CTC-96 0.2%): (0%)
- Histology: grafts Negative for HPV (number) (HPV-11 [1]; CTC-96 0.2%): 12
- Immunocytochemistry: grafts Negative for HPV (number) (HPV-11 [1]; CTC-96 0.2%): 12
- Histology: grafts Positive for HPV (number) (HPV-11 [1]; CTC-96 1%): 0
- Histology: grafts Positive for HPV (percent) (HPV-11 [1]; CTC-96 1%): (0%)
- Immunocytochemistry: grafts Positive for HPV (number) (HPV-11 [1]; CTC-96 1%): 0
- Immunocytochemistry: grafts Positive for HPV (percent) (HPV-11 [1]; CTC-96 1%): (0%)
- RT-PCR: grafts HPV-11 Negative (number) (HPV-11 [1]; CTC-96 1%): 15
- RT-PCR: grafts HPV-11 Positive (number) (HPV-11 [1]; CTC-96 1%): 0
- RT-PCR: grafts HPV-11 Positive (percent) (HPV-11 [1]; CTC-96 1%): (0%)
- Histology: grafts Negative for HPV (number) (HPV-11 [1]; CTC-96 1%): 16
- Immunocytochemistry: grafts Negative for HPV (number) (HPV-11 [1]; CTC-96 1%): 17
- Composite Geometric Mean Diameters (cGMD) of the Grafts, Median (HPV-11 [1]; [3]): 2.01 mm
- Composite Geometric Mean Diameters (cGMD) of the Grafts, Mean ± SD (HPV-11 [1]; [3]): 2.02 ± 0.179 mm
- Composite Geometric Mean Diameters (cGMD) of the Grafts, Median (HPV-11 [1]; [4]): 1.88 mm
- Composite Geometric Mean Diameters (cGMD) of the Grafts, Mean ± SD (HPV-11 [1]; [4]): 1.86 ± 0.196 mm
- Composite Geometric Mean Diameters (cGMD) of the Grafts, Median (HPV-11 [1]; HPV-11 treated with CTC-96 1%): 1.94 mm
- Composite Geometric Mean Diameters (cGMD) of the Grafts, Mean ± SD (HPV-11 [1]; HPV-11 treated with CTC-96 1%): 1.95 ± 0.139 mm
- RT-PCR: grafts HPV-11 Negative (number) (HPV-11 [1]; [5]): 5
- RT-PCR: grafts HPV-11 Positive (percent) (HPV-11 [1]; [5]): (28.6%)
- Virucidal effect on HPV-11 (HPV-11 [1]; highest concentration of CTC-96 (1%)): completely virucidal
- Effect on the animals' mortality or weight gain (HPV-11 [1]; mouse, in vivo): no effect
- Histology: grafts Negative for HPV (percent) (HPV-11 [2]; CTC-96 0.05%): 30%
- Histology: grafts Positive for HPV (number) (HPV-11 [2]; CTC-96 0.05%): 16
- Histology: grafts Positive for HPV (percent) (HPV-11 [2]; CTC-96 0.05%): 73%
- Immunocytochemistry (HPV capsid antigen): grafts Negative (percent) (HPV-11 [2]; CTC-96 0.05%): 48%
- Immunocytochemistry (HPV capsid antigen): grafts Positive (number) (HPV-11 [2]; CTC-96 0.05%): 12
- Immunocytochemistry (HPV capsid antigen): grafts Positive (percent) (HPV-11 [2]; CTC-96 0.05%): 52%
- RT-PCR (HPV-11 mRNA): grafts Negative (number) (HPV-11 [2]; CTC-96 0.05%): 9
- RT-PCR (HPV-11 mRNA): grafts Negative (percent) (HPV-11 [2]; CTC-96 0.05%): 39%
- RT-PCR (HPV-11 mRNA): grafts Positive (number) (HPV-11 [2]; CTC-96 0.05%): 14
- RT-PCR (HPV-11 mRNA): grafts Positive (percent) (HPV-11 [2]; CTC-96 0.05%): 61%
- Immunocytochemistry (HPV capsid antigen): grafts Negative (number) (HPV-11 [2]; CTC-96 0.05%, foreign body/fibrous counted as negative): 11
- Histology: grafts Negative for HPV (number) (HPV-11 [2]; CTC-96 0.2%): 14
- Histology: grafts Negative for HPV (percent) (HPV-11 [2]; CTC-96 0.2%): 67%
- Histology: grafts Positive for HPV (number) (HPV-11 [2]; CTC-96 0.2%): 7
- Histology: grafts Positive for HPV (percent) (HPV-11 [2]; CTC-96 0.2%): 33%
- Immunocytochemistry (HPV capsid antigen): grafts Negative (number) (HPV-11 [2]; CTC-96 0.2%): 15
- Immunocytochemistry (HPV capsid antigen): grafts Negative (percent) (HPV-11 [2]; CTC-96 0.2%): 71%
- Immunocytochemistry (HPV capsid antigen): grafts Positive (number) (HPV-11 [2]; CTC-96 0.2%): 6
- Immunocytochemistry (HPV capsid antigen): grafts Positive (percent) (HPV-11 [2]; CTC-96 0.2%): 29%
- RT-PCR (HPV-11 mRNA): grafts Negative (number) (HPV-11 [2]; CTC-96 0.2%): 17
- RT-PCR (HPV-11 mRNA): grafts Negative (percent) (HPV-11 [2]; CTC-96 0.2%): 81%
- RT-PCR (HPV-11 mRNA): grafts Positive (number) (HPV-11 [2]; CTC-96 0.2%): 4
- RT-PCR (HPV-11 mRNA): grafts Positive (percent) (HPV-11 [2]; CTC-96 0.2%): 19%
- Histology: grafts Negative for HPV (number) (HPV-11 [2]; CTC-96 1%): 22
- Histology: grafts Negative for HPV (percent) (HPV-11 [2]; CTC-96 1%): 100%
- Histology: grafts Positive for HPV (number) (HPV-11 [2]; CTC-96 1%): 0
- Histology: grafts Positive for HPV (percent) (HPV-11 [2]; CTC-96 1%): 0%
- Immunocytochemistry (HPV capsid antigen): grafts Negative (number) (HPV-11 [2]; CTC-96 1%): 22
- Immunocytochemistry (HPV capsid antigen): grafts Negative (percent) (HPV-11 [2]; CTC-96 1%): 100%
- Immunocytochemistry (HPV capsid antigen): grafts Positive (number) (HPV-11 [2]; CTC-96 1%): 0
- Immunocytochemistry (HPV capsid antigen): grafts Positive (percent) (HPV-11 [2]; CTC-96 1%): 0%
- RT-PCR (HPV-11 mRNA): grafts Negative (number) (HPV-11 [2]; CTC-96 1%): 14
- RT-PCR (HPV-11 mRNA): grafts Negative (percent) (HPV-11 [2]; CTC-96 1%): 78%
- RT-PCR (HPV-11 mRNA): grafts Positive (number) (HPV-11 [2]; CTC-96 1%): 4
- RT-PCR (HPV-11 mRNA): grafts Positive (percent) (HPV-11 [2]; CTC-96 1%): 22%
- Graft size (composite geometric mean diameter) versus control, FIG. 2 (HPV-11 [2]; all CTC-96 concentrations, 12 weeks): dramatic and highly statistically significant microbicidal effect
- Histology: grafts Negative for HPV (number) (HPV-11 [2]; grafts pre-exposed to CTC-96 0.05%, foreign body/fibrous counted as negative): 7
